According to patent US10919877B2, “Multifunctional inhibitors of MEK/PI3K and mTOR/MEK/PI3K biological pathways and therapeutic methods using the same” (THE REGENTS OF THE UNIVERSITY OF MICHIGAN, priority 2016, dated 2021):
Several values for one entry are separate records, joined by “and”; a condition that tells them apart may be missing. Equal values may be shown once. Read-outs that look alike come from different tables or passages of the source.

Tests used:
PI3Kα = target: T1, PI3Kα (Homo sapiens, UniProt P42336); experiment: PI3K subtype enzyme inhibition; type: biochemical
T1 construct: purchased Life Technologies (assay run by the vendor)

PI3Kβ = target: T2, PI3Kβ (Homo sapiens, UniProt P42338); experiment: PI3K subtype enzyme inhibition; type: biochemical
T2 construct: purchased Life Technologies (assay run by the vendor)

PI3Kγ = target: T3, PI3Kγ (Homo sapiens, UniProt P48736); experiment: PI3K subtype enzyme inhibition; type: biochemical
T3 construct: purchased Life Technologies (assay run by the vendor)

PI3Kδ = target: T4, PI3Kδ (Homo sapiens, UniProt O00329); experiment: PI3K subtype enzyme inhibition; type: biochemical
T4 construct: purchased Life Technologies (assay run by the vendor)

MEK1 = target: T5, MEK1 (Homo sapiens, UniProt Q02750); experiment: In vitro MEK1 inhibition assay (Kinase-Glo luminescent kinase assay); type: biochemical; conditions: average of three experiments each conducted in duplicate
T5 construct: purchased Sigma-Aldrich

[1] = tested on: pAkt in A549 and D54 cells; experiment: Cellular PI3K inhibition, Western blot of pAkt in cultured tumor cells; type: cell-based, human; conditions: 1 hour; for PI3K activity indicated by level of pAKT: cultured A549 cells, Western blot vs DMSO
Protocol: The in vitro MEK1 and PI3K inhibitory activity of these series of compounds was also assessed in cultured tumor cells (D54, A549). Cellular efficacy of MEK1 and PI3K inhibition by inhibitor compounds was measured by changes in phosphorylation of pErk1/2 and pAkt, respectively. […] Cells were incubated in the presence of indicated compounds for 1 hour and lysates probed with specific antibodies against pAKT and pERK 1/2 and compared with vehicle control (DMSO). A549 (FIG. 2A) and D54 (FIG. 2B) cells were treated with inhibitors at the indicated concentrations for 1 hour and subjected to Western blot analysis.
Western Blot Analysis. Cells were seeded in six-well dishes 24 hours prior to treatment and incubated with the respective inhibitor compound solutions for 1 h. Cells were washed with phosphatebuffered saline (PBS) and lysed with NP-40 lysis buffer (1% NP40, 150 mM NaCl, and 25 mM Tris, pH 8.0) supplemented with protease inhibitors (Complete protease inhibitor cocktail, Roche, Basel, Switzerland) and phosphatase inhibitors (PhosSTOP, Roche, Basel, Switzerland). Concentration of protein was determined using Lowry assays (Bio-Rad, Hercules, Calif.), and equal amounts of whole cell protein lysate were loaded in each lane and resolved using 4-12% gradient Bis-Tris gel (Invitrogen, CA). Proteins were transferred to 0.2 μm nitrocellulose membranes (Invitrogen, CA). Membranes were incubated overnight at 4° C. with primary antibodies after blocking, followed by incubation with appropriate horseradish peroxidase (HRP) conjugated secondary antibody at room temperature for 1 hour. ECL-Plus was used to detect the activity of peroxidase according to the manufacturer's protocol (Amersham Pharmacia, Uppsala, Sweden). Antibodies raised against phospho-p44/42 MAPK (Erk1/2) (Thr202/Tyr204), pAKT(5473), phospho-p70 S6K* and total ERK, AKT antibodies were purchased from Cell Signaling Technology (Beverly, Mass., USA), and anti-β actin (conjugated with HRP) was purchased from Abcam (Cambridge, Mass., USA). Secondary HRP antibodies were purchased from Jackson ImmunoResearch (St. Louis, Mo., USA).

[2] = tested on: pErk1/2 in A549 and D54 cells; experiment: Cellular MEK1 inhibition, Western blot of pErk1/2 in cultured tumor cells; type: cell-based, human; conditions: A549 and D54 cell lines, 1 hour
A549 lung tumor cells = experiment: Cell viability, AlamarBlue assay; type: cell-based, human; conditions: dose dependence
D54 glioma cells = experiment: Cell viability, AlamarBlue assay; type: cell-based, human; conditions: dose dependence
ERK1/2 phosphorylation = experiment: In vivo MEK1 inhibition in flank D54 and A549 tumor bearing mice (Western blot); conditions: D54 and A549 tumors; compound 14: 375 mg/kg oral gavage, 2 h
Akt phosphorylation = experiment: In vivo PI3K inhibition in flank D54 and A549 tumor bearing mice (Western blot); conditions: D54 and A549 tumors; compound 14: 375 mg/kg oral gavage, 2 h
mTOR = mTOR (Homo sapiens, UniProt P42345); experiment: mTOR enzyme inhibition; type: biochemical
PI3K = PI3K (Homo sapiens, UniProt P42336); experiment: In vitro PI3K inhibition assay (Adapta TR-FRET); type: biochemical; conditions: average of three experiments each conducted in duplicate
[3] = tested on: A375 (melanoma), D54 (glioma), CT26 colorectal cancer, A2058 (melanoma) cell lines; experiment: Concurrent inhibition in tumor cell lines (multifunctional inhibitors); type: cell-based
Description: The synthesis of another series of single entity, multifunctional inhibitors achieved by covalent linking of structural analogs of a PI3K inhibitor mTOR inhibitor, and an MEK inhibitor is also disclosed.

[4] = read-out: PI3K Subtype Enzyme Inhibition Data IC50 PI3Kα
[5] = table of additional PI3K inhibitors, read-out: PI3Kα IC50
[6] = read-out: PI3K Subtype Enzyme Inhibition Data IC50 PI3Kβ
[7] = table of additional PI3K inhibitors, read-out: PI3Kβ IC50
[8] = read-out: PI3K Subtype Enzyme Inhibition Data IC50 PI3Kγ
[9] = table of additional PI3K inhibitors, read-out: PI3Kγ IC50
[10] = read-out: PI3K Subtype Enzyme Inhibition Data IC50 PI3Kδ
[11] = table of additional PI3K inhibitors, read-out: PI3Kδ IC50

T4 sequence (O00329 whole entry): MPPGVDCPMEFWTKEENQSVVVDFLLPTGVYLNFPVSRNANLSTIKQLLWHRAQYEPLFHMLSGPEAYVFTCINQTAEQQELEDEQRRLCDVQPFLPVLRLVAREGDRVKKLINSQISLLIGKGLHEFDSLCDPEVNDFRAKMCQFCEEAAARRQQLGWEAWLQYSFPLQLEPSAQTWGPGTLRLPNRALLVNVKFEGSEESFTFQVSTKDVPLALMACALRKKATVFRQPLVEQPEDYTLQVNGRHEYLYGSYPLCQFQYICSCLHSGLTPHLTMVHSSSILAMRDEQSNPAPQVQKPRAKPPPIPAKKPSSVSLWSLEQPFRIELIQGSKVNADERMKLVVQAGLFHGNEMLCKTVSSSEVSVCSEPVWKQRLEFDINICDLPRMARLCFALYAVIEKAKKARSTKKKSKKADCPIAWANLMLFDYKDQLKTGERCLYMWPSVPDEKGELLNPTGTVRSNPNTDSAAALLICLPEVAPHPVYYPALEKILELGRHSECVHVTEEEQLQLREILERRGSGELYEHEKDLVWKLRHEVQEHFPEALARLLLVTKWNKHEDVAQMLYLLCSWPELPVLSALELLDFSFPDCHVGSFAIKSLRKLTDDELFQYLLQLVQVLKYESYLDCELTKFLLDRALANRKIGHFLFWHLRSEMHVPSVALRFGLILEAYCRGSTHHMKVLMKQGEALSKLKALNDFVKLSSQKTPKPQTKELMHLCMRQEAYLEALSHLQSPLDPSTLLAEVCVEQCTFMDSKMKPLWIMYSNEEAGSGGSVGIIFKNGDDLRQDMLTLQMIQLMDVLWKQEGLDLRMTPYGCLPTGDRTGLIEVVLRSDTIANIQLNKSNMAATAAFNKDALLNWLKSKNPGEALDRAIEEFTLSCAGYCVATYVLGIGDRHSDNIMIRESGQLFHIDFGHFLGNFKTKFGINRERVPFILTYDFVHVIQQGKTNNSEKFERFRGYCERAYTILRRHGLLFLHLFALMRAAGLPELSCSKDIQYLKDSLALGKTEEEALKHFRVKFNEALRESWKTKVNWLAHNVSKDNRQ
T4 sequence (P27986 whole entry partner): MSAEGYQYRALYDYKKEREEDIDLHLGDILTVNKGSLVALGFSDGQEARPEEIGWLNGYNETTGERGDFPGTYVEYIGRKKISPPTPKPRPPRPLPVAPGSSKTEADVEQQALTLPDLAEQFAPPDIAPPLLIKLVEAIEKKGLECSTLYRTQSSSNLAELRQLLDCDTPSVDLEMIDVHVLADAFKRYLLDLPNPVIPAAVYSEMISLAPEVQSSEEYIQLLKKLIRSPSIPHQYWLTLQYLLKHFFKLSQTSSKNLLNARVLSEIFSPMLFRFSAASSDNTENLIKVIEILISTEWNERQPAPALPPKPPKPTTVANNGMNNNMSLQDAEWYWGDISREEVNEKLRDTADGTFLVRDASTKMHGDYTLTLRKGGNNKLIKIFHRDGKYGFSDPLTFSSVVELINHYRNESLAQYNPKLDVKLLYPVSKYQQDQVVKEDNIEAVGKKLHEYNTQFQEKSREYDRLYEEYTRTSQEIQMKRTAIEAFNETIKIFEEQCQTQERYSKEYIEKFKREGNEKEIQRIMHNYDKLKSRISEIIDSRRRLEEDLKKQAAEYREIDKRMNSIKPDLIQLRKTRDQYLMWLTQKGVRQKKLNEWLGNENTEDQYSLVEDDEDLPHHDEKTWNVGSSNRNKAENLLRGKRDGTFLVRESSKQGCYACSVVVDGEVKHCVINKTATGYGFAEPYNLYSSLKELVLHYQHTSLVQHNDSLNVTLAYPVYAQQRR
T3 sequence (P48736 whole entry): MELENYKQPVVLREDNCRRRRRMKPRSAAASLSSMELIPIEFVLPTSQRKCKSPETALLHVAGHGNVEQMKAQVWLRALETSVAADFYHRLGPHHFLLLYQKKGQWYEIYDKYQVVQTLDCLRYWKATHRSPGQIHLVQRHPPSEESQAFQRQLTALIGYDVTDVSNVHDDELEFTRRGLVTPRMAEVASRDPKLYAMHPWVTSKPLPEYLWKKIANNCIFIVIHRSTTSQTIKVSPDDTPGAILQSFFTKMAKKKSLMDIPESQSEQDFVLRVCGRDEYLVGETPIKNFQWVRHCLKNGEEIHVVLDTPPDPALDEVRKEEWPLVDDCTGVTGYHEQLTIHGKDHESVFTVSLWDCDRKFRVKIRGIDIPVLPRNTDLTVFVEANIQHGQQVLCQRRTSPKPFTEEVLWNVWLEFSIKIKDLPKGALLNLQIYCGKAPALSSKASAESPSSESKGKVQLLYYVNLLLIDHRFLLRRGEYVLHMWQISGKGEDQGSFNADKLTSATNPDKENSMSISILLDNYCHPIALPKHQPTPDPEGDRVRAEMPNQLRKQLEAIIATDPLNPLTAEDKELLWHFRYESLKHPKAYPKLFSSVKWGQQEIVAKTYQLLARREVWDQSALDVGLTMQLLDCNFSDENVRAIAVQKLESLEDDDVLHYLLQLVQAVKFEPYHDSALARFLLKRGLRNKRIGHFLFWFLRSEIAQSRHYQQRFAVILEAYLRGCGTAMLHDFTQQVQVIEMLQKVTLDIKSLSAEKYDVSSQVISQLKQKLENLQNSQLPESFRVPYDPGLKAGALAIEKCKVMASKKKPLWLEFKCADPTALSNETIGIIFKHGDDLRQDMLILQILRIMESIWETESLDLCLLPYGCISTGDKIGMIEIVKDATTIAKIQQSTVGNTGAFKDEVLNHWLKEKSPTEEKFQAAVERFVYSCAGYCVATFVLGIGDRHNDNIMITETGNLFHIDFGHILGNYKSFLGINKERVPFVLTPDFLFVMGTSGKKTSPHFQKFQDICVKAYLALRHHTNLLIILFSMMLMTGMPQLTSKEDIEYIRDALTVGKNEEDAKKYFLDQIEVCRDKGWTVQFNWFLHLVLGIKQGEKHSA
T2 sequence (P42338 whole entry): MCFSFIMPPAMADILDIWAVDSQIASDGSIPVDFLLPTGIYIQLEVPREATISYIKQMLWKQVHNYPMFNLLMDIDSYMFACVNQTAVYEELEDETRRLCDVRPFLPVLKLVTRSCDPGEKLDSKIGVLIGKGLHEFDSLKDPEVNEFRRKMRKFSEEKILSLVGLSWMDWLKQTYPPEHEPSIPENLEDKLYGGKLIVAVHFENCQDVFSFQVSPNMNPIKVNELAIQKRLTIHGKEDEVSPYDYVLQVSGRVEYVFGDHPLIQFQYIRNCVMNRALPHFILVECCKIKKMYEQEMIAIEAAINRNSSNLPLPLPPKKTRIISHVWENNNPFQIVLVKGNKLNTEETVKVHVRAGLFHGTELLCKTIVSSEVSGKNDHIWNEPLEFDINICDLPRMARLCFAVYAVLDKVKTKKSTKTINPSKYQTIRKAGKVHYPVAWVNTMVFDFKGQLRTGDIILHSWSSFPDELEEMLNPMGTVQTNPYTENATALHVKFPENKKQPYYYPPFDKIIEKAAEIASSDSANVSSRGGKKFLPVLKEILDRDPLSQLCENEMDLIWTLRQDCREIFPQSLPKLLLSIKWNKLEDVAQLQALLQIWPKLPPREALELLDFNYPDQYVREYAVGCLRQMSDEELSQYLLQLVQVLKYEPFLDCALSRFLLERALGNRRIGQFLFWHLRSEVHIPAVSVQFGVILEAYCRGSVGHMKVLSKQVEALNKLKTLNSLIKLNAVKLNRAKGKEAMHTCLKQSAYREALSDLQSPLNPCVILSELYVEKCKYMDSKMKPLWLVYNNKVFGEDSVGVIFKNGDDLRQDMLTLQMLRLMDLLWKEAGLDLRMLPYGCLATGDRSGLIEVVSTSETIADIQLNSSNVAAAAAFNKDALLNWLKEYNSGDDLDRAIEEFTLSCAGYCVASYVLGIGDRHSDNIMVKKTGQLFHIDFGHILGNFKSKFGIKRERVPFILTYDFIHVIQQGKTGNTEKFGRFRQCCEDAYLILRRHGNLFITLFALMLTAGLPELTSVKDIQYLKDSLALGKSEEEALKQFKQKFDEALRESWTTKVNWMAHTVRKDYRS
T2 sequence (P27986 whole entry partner): as the sequence (P27986 whole entry partner) above
T1 sequence (P42336 whole entry): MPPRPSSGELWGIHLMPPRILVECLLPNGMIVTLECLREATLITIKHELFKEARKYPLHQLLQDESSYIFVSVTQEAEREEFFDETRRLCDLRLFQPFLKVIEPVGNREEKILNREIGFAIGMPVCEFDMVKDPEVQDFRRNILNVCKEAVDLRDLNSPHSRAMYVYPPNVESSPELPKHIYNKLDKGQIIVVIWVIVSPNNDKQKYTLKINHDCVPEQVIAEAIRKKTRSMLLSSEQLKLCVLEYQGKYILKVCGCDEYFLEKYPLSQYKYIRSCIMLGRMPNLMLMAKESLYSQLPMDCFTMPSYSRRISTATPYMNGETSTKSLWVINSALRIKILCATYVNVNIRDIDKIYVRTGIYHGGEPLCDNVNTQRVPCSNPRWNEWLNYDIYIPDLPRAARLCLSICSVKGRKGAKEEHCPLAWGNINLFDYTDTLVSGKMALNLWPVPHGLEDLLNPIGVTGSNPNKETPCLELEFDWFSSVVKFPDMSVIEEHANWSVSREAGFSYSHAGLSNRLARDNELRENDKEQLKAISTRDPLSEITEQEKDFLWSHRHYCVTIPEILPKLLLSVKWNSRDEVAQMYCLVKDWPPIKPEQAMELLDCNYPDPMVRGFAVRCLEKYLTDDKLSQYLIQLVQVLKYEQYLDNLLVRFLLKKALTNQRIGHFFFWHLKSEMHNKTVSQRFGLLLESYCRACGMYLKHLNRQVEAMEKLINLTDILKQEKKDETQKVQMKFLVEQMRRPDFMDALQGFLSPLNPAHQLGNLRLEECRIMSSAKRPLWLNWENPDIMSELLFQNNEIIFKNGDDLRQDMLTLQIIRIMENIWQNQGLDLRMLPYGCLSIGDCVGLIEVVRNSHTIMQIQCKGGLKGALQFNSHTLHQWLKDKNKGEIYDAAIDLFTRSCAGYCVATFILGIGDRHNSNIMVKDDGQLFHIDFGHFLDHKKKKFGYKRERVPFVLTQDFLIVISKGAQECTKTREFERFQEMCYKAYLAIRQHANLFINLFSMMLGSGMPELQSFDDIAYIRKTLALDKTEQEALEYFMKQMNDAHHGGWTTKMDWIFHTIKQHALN
T1 sequence (P27986 whole entry partner): as the sequence (P27986 whole entry partner) above

Row | SMILES | IC50 (PI3Kα; [4]) [nM] | IC50 (PI3Kα; [5]) [nM] | IC50 (PI3Kβ; [6]) [nM] | IC50 (PI3Kβ; [7]) [nM] | IC50 (PI3Kγ; [8]) [nM] | IC50 (PI3Kγ; [9]) [nM] | IC50 (PI3Kδ; [10]) [nM] | IC50 (PI3Kδ; [11]) [nM] | further results
1 | CNC(=O)CCNc1nc(N2CCOCC2)nc(-n2c(C(F)F)nc3ccccc32)n1 [ST-5-21] | 20 ± 0.4 | 20 ± 0.4 | 431 ± 83 | 431 ± 83 | 67 ± 2.8 | 67 ± 2.8 | 26 ± 4.9 | 26 ± 4.9 | 
2 | CC(=O)N1CCN(c2nc(N3CCOCC3)nc(-n3c(C(F)F)nc4ccccc43)n2)CC1 [ST-5-03] |  |  | 14.3 ± 2.5 | 14.3 ± 2.5 | 21 ± 1 | 21 ± 1 |  |  | 
3 | O=C(CNCCONC(=O)c1ccc(F)c(F)c1Nc1ccc(I)cc1F)NCCCCCC(=O)N1CCN(c2nc(N3CCOCC3)nc(-n3c(C(F)F)nc4ccccc43)n2)CC1 [Compound 7, N-(2-((2-((6-(4-(4-(2-(Difluoromethyl)-1H-benzo[d]imidazol-1-yl)-6-morpholino-1,3,5-triazin-2-yl)piperazin-1-yl)-6-oxohexyl)amino)-2-oxoethyl)amino)ethoxy)-3,4-difluoro-2-((2-fluoro-4-iodophenyl)amino)benzamide] |  |  |  |  |  |  |  |  | IC50 (MEK1): 0.5 ± 1.2 nM; PI3K activity indicated by level of pAKT [1]: high potency in inhibiting PI3K activity
4 | CNCCNc1nc(N2CCOCC2)nc(-n2c(C(F)F)nc3ccccc32)n1 [ST-5-02] | 248 ± 24 | 248 ± 24 | 2900 ± 375 | 2900 ± 375 | 681 ± 90 | 681 ± 90 | 135 ± 19 | 135 ± 19 | 
5 | CC(=O)NCCNc1nc(N2CCOCC2)nc(-n2c(C(F)F)nc3ccccc32)n1 [ST-5-22] | 16.6 ± 1.4 |  | 199 ± 12 |  | 54 ± 1.5 |  | 9.5 ± 2.4 |  | 
6 | O=C(NOCCNCCCCCC(=O)N1CCN(c2nc(N3CCOCC3)nc(-n3c(C(F)F)nc4ccccc43)n2)CC1)c1ccc(F)c(F)c1Nc1ccc(I)cc1F [Compound 9, N-(2-((6-(4-(4-(2-(Difluoromethyl)-1H-benzo[d]imidazol-1-yl)-6-morpholino-1,3,5-triazin-2-yl)piperazin-1-yl)-6-oxohexyl)amino)ethoxy)-3,4-difluoro-2-((2-fluoro-4-iodophenyl)amino)benzamide] |  |  |  |  |  |  |  |  | MEK inhibition in cells [2]: most pronounced; PI3K inhibition in cells ([1]; A549 and D54 cell lines, Western blot): most pronounced; PI3K activity indicated by level of pAKT [1]: high potency in inhibiting PI3K activity; cell viability (A549 lung tumor cells): as effective as the combination of ZSTK474 and PD0325901; cell viability (D54 glioma cells): as effective as the combination of ZSTK474 and PD0325901; phosphorylation of ERK1/2 (MEK1 activity) in excised tumor tissue (ERK1/2 phosphorylation): modulation of ERK1/2 and pAkt levels was also achieved; phosphorylation of Akt (PI3K activity) in excised tumor tissue (Akt phosphorylation): modulation of ERK1/2 and pAkt levels was also achieved
7 | CC(=O)N1CCN(c2cnc3ccc(-c4cnc(Cl)c(NS(=O)(=O)c5ccc(F)cc5)c4)cc3n2)CC1 [ST-5-28] |  |  |  |  |  |  |  |  | IC50 (PI3Kα; read-out: PI3Kα IC50): < 0.495 nM; IC50 (PI3Kβ; read-out: PI3Kβ IC50): 5.36 ± 1.1 nM; IC50 (PI3Kγ; read-out: PI3Kγ IC50): 0.71 ± 0.2 nM; IC50 (PI3Kδ; read-out: PI3Kδ IC50): < 0.495 nM; IC50 (mTOR): 3.13 ± 0.14 nM
8 | NOCCOCCOCCOCCC(=O)N1CCN(c2cnc3ccc(-c4cnc(Cl)c(NS(=O)(=O)c5ccc(F)cc5)c4)cc3n2)CC1 [ST-5-29] |  |  |  |  |  |  |  |  | IC50 (PI3Kα; read-out: PI3Kα IC50): < 0.495 nM; IC50 (PI3Kβ; read-out: PI3Kβ IC50): 1.33 ± 0.59 nM; IC50 (PI3Kγ; read-out: PI3Kγ IC50): 30.2 ± 0.14 nM; IC50 (mTOR): 6.77 ± 0.43 nM
9 | O=C(NOCCNCCCCS(=O)(=O)N1CCN(c2nc(N3CCOCC3)nc(-n3c(C(F)F)nc4ccccc43)n2)CC1)c1ccc(F)c(F)c1Nc1ccc(I)cc1F [Compound 11] |  |  |  |  |  |  |  |  | IC50 (MEK1): 56.7 ± 1.3 nM; IC50 (PI3K): 191 to 341 nM and 285 nM
10 | O=C(O)CCNc1nc(N2CCOCC2)nc(-n2c(C(F)F)nc3ccccc32)n1 [ST-5-25] | 12.4 ± 0.7 | 12.4 ± 0.7 | 787 ± 106 | 787 ± 106 | 22.3 ± 0.7 | 22.3 ± 0.7 | 60 ± 3.4 | 60 ± 3.4 | 
11 | CN(CCOCCOCCONC(=O)c1ccc(F)c(F)c1Nc1ccc(I)cc1F)CC[N+](C)(C)CCOCCOCCC(=O)N1CCN(c2nc(N3CCOCC3)nc(-n3c(C(F)F)nc4ccccc43)n2)CC1 [ST-5-05] | 39 ± 2 |  | 2520 ± 557 |  | 2590 ± 660 |  | 56 ± 13 |  | 
12 | O=S(=O)(Nc1cc(-c2ccc3ncc(N4CCNCC4)nc3c2)cnc1Cl)c1ccc(F)cc1 [ST-5-27] |  |  |  |  |  |  |  |  | IC50 (PI3Kα; read-out: PI3Kα IC50): < 0.495 nM; IC50 (PI3Kβ; read-out: PI3Kβ IC50): 477 ± 0.92 nM; IC50 (PI3Kγ; read-out: PI3Kγ IC50): 514 ± 0.23 nM; IC50 (PI3Kδ; read-out: PI3Kδ IC50): 0.83 ± 0.06 nM; IC50 (mTOR): 5.97 ± 0.27 nM
13 | O=C(NOCCOCCOCCOCCC(=O)N1CCN(c2cnc3ccc(-c4cnc(Cl)c(NS(=O)(=O)c5ccc(F)cc5)c4)cc3n2)CC1)c1ccc(F)c(F)c1Nc1ccc(I)cc1F [ST-182] |  |  |  |  |  |  |  |  | IC50 (PI3Kα; read-out: PI3Kα IC50): 2 ± 0.3 nM; IC50 (PI3Kβ; read-out: PI3Kβ IC50): 467 ± 44 nM; IC50 (PI3Kγ; read-out: PI3Kγ IC50): 34.1 ± 3 nM; IC50 (PI3Kδ; read-out: PI3Kδ IC50): 4.22 ± 0.64 nM; IC50 (mTOR): 53.1 ± 2.5 nM
14 | FC(F)c1nc2ccccc2n1-c1nc(N2CCNCC2)nc(N2CCOCC2)n1 |  |  |  |  |  |  |  |  | IC50 (PI3Kβ; mean ± SEM, read-out: PI3K Subtype Inhibition Activity PI3Kβ): 1090 ± 168 nM; IC50 (PI3Kγ; mean ± SEM, read-out: PI3K Subtype Inhibition Activity PI3Kγ): 1870 ± 283 nM

Second part, led by results:

Row | IC50 (PI3Kα; [4]) [nM] | IC50 (PI3Kα; [5]) [nM] | IC50 (PI3Kβ; [6]) [nM] | IC50 (PI3Kβ; [7]) [nM] | IC50 (PI3Kγ; [8]) [nM] | IC50 (PI3Kγ; [9]) [nM] | IC50 (PI3Kδ; [10]) [nM] | IC50 (PI3Kδ; [11]) [nM] | SMILES | further results
15 |  |  | 214 ± 49 | 214 ± 49 | 140 ± 6.6 | 140 ± 6.6 |  |  | NOCCOCCOCCOCCC(=O)N1CCN(c2nc(N3CCOCC3)nc(-n3c(C(F)F)nc4ccccc43)n2)CC1 [ST-167] | 
16 | 20 ± 3 | 20 ± 3 | 208 ± 15 | 208 ± 15 | 64 ± 5 | 64 ± 5 | 17 ± 1 | 17 ± 1 | COCCNc1nc(N2CCOCC2)nc(-n2c(C(F)F)nc3ccccc32)n1 [ST-178] | 
17 | 39 ± 9 |  | 2210 ± 425 |  | 717 ± 136 |  | 52 ± 1.4 |  | CN(CCOCCOCCONC(=O)c1ccc(F)c(F)c1Nc1ccc(I)cc1F)CCN(C)CCOCCOCCC(=O)N1CCN(c2nc(N3CCOCC3)nc(-n3c(C(F)F)nc4ccccc43)n2)CC1 [ST-180] | Concurrent inhibition in tumor cell lines [3]: Concurrent inhibition was demonstrated
18 | 9.9 ± 1.2 | 9.9 ± 1.2 | 71 ± 8 | 71 ± 8 | 54 ± 1 | 54 ± 1 | 8.1 ± 1.7 | 8.1 ± 1.7 | OCCNc1nc(N2CCOCC2)nc(-n2c(C(F)F)nc3ccccc32)n1 [ST-187] | 
19 | 292 ± 31 | 292 ± 31 | 2120 ± 444 | 2120 ± 444 | 771 ± 63 | 771 ± 63 | 291 ± 32 | 291 ± 32 | NCCNc1nc(N2CCOCC2)nc(-n2c(C(F)F)nc3ccccc32)n1 [ST-177] | 
